Results from patent US9034793B2, “Use of ribose to enhance plant growth” (Bioenergy, Inc., priority 2002, dated 2015).

System: bean seeds
Test: Plant growth and yield from bean seeds, daylight or darkness (Example 2)
Format: in vivo
Method: Three different treatments were explored on bean seeds to determine the effects of ribose (at two different doses) on plant growth and proliferation. [The three treatments include control (plain water), a 0.1332 M solution of ribose (5 g D-ribose dissolved in 250 ml water), and a 0.0666 M solution of ribose (5 g D-ribose dissolved in 500 ml water)]. The plants were kept under two different conditions, normal daylight and darkness. A total of six plants will be tested, with the conditions that each plant were tested at listed below. Treatments: [table] Each seed was planted under identical conditions (soil and pot size) and all at the same time. The environmental conditions (such as temperature and humidity), except for lighting, were kept constant for all the plants. Once potted, each seed received one to two tablespoons of treatment liquid (as mentioned above). A daily record was kept of the activity of each plant. Watering was done on every other day (or sooner if the soil was deemed too dry by the researcher), each again receiving one tablespoon of treatment liquid. Assessment of the effects of ribose fertilization was determined by measuring the time to the first appearance of a plant from the soil, the rate of growth, and leaf size. Table 3 represents the accumulated plant growth data from Example 2 and FIGS. 3 and 4 are graphic presentations of plant growth during light and dark conditions.

For `O=C[C@H](O)[C@H](O)[C@H](O)CO` [5/250, D-ribose], the “Amount of Growth Between Measurements” value (Dark, Day 0 (17-Sep)) was 0, the Plant growth-height (Dark, Day 0 (17-Sep)) was 0 and the “Rate of Growth Between Measurements” value (Dark, Day 0 (17-Sep)) was 0. For the same compound, the “Amount of Growth Between Measurements” value (Dark, Day 3 (20-Sep)) was 0, the Plant growth-height (Dark, Day 3 (20-Sep)) was 0 and the “Rate of Growth Between Measurements” value (Dark, Day 3 (20-Sep)) was 0. For the same compound, the “Amount of Growth Between Measurements” value (Dark, Day 5 (22-Sep)) was 0, the Plant growth-height (Dark, Day 5 (22-Sep)) was 0 and the “Rate of Growth Between Measurements” value (Dark, Day 5 (22-Sep)) was 0. The “Rate of Growth Overall Thru Date” value (Dark, Day 5 (22-Sep)) was 0, the “Amount of Growth Between Measurements” value (Dark, Day 7 (24-Sep)) was 4.4 and the Plant growth-height (Dark, Day 7 (24-Sep)) was 4.4. The “Rate of Growth Between Measurements” value (Dark, Day 7 (24-Sep)) was 2.20, the “Rate of Growth Overall Thru Date” value (Dark, Day 7 (24-Sep)) was 0.63 and the “Amount of Growth Between Measurements” value (Dark, Day 8 (25-Sep)) was 4.1. For the same compound, the Plant growth-height (Dark, Day 8 (25-Sep)) was 8.5, the “Rate of Growth Between Measurements” value (Dark, Day 8 (25-Sep)) was 4.10 and the “Rate of Growth Overall Thru Date” value (Dark, Day 8 (25-Sep)) was 1.06. For the same compound, the “Amount of Growth Between Measurements” value (Dark, Day 9 (26-Sep)) was 4.7, the Plant growth-height (Dark, Day 9 (26-Sep)) was 13.2 and the “Rate of Growth Between Measurements” value (Dark, Day 9 (26-Sep)) was 4.70. The “Rate of Growth Overall Thru Date” value (Dark, Day 9 (26-Sep)) was 1.47, the “Amount of Growth Between Measurements” value (Dark, Day 10 (27-Sep)) was 2.1 and the Plant growth-height (Dark, Day 10 (27-Sep)) was 15.3. The “Rate of Growth Between Measurements” value (Dark, Day 10 (27-Sep)) was 2.10, the “Rate of Growth Overall Thru Date” value (Dark, Day 10 (27-Sep)) was 1.53 and the “Amount of Growth Between Measurements” value (Dark, Day 11 (28-Sep)) was 2.3. The Plant growth-height (Dark, Day 11 (28-Sep)) was 17.6, the “Rate of Growth Between Measurements” value (Dark, Day 11 (28-Sep)) was 2.30 and the “Rate of Growth Overall Thru Date” value (Dark, Day 11 (28-Sep)) was 1.60. For the same compound, the “Amount of Growth Between Measurements” value (Dark, Day 12 (29-Sep)) was 2, the Plant growth-height (Dark, Day 12 (29-Sep)) was 19.6 and the “Rate of Growth Between Measurements” value (Dark, Day 12 (29-Sep)) was 2.00. The “Rate of Growth Overall Thru Date” value (Dark, Day 12 (29-Sep)) was 1.63, the “Amount of Growth Between Measurements” value (Dark, Day 13 (30-Sep)) was 1.5 and the Plant growth-height (Dark, Day 13 (30-Sep)) was 21.1. For the same compound, the “Rate of Growth Between Measurements” value (Dark, Day 13 (30-Sep)) was 1.50, the “Rate of Growth Overall Thru Date” value (Dark, Day 13 (30-Sep)) was 1.62 and the “Amount of Growth Between Measurements” value (Dark, Day 16 (3-Oct)) was 3.6. For the same compound, the Plant growth-height (Dark, Day 16 (3-Oct)) was 24.7, the “Rate of Growth Between Measurements” value (Dark, Day 16 (3-Oct)) was 1.20 and the “Rate of Growth Overall Thru Date” value (Dark, Day 16 (3-Oct)) was 1.54. The “Amount of Growth Between Measurements” value (Light, Day 0 (17-Sep)) was 0, the Plant growth-height (Light, Day 0 (17-Sep)) was 0 and the “Rate of Growth Between Measurements” value (Light, Day 0 (17-Sep)) was 0. The “Amount of Growth Between Measurements” value (Light, Day 3 (20-Sep)) was 0, the Plant growth-height (Light, Day 3 (20-Sep)) was 0 and the “Rate of Growth Between Measurements” value (Light, Day 3 (20-Sep)) was 0. For the same compound, the “Amount of Growth Between Measurements” value (Light, Day 5 (22-Sep)) was 1.1, the Plant growth-height (Light, Day 5 (22-Sep)) was 1.1 and the “Rate of Growth Between Measurements” value (Light, Day 5 (22-Sep)) was 0.55. The “Rate of Growth Overall Thru Date” value (Light, Day 5 (22-Sep)) was 0.22, the “Amount of Growth Between Measurements” value (Light, Day 7 (24-Sep)) was 4.4 and the Plant growth-height (Light, Day 7 (24-Sep)) was 5.5. For the same compound, the “Rate of Growth Between Measurements” value (Light, Day 7 (24-Sep)) was 2.20, the “Rate of Growth Overall Thru Date” value (Light, Day 7 (24-Sep)) was 0.79 and the “Amount of Growth Between Measurements” value (Light, Day 8 (25-Sep)) was 9.5. For the same compound, the Plant growth-height (Light, Day 8 (25-Sep)) was 15, the “Rate of Growth Between Measurements” value (Light, Day 8 (25-Sep)) was 9.50 and the “Rate of Growth Overall Thru Date” value (Light, Day 8 (25-Sep)) was 1.88. For the same compound, the “Amount of Growth Between Measurements” value (Light, Day 9 (26-Sep)) was 4.1, the Plant growth-height (Light, Day 9 (26-Sep)) was 19.1 and the “Rate of Growth Between Measurements” value (Light, Day 9 (26-Sep)) was 4.10. For the same compound, the “Rate of Growth Overall Thru Date” value (Light, Day 9 (26-Sep)) was 2.12, the “Amount of Growth Between Measurements” value (Light, Day 10 (27-Sep)) was 4 and the Plant growth-height (Light, Day 10 (27-Sep)) was 23.1. The “Rate of Growth Between Measurements” value (Light, Day 10 (27-Sep)) was 4.00, the “Rate of Growth Overall Thru Date” value (Light, Day 10 (27-Sep)) was 2.31 and the “Amount of Growth Between Measurements” value (Light, Day 11 (28-Sep)) was 2.6. For the same compound, the Plant growth-height (Light, Day 11 (28-Sep)) was 25.7, the “Rate of Growth Between Measurements” value (Light, Day 11 (28-Sep)) was 2.60 and the “Rate of Growth Overall Thru Date” value (Light, Day 11 (28-Sep)) was 2.34. For the same compound, the “Amount of Growth Between Measurements” value (Light, Day 12 (29-Sep)) was 0.7, the Plant growth-height (Light, Day 12 (29-Sep)) was 26.4 and the “Rate of Growth Between Measurements” value (Light, Day 12 (29-Sep)) was 0.70. The “Rate of Growth Overall Thru Date” value (Light, Day 12 (29-Sep)) was 2.20, the “Amount of Growth Between Measurements” value (Light, Day 13 (30-Sep)) was 0.2 and the Plant growth-height (Light, Day 13 (30-Sep)) was 26.6. For the same compound, the “Rate of Growth Between Measurements” value (Light, Day 13 (30-Sep)) was 0.20, the “Rate of Growth Overall Thru Date” value (Light, Day 13 (30-Sep)) was 2.05 and the “Amount of Growth Between Measurements” value (Light, Day 16 (3-Oct)) was 1.7. For the same compound, the Plant growth-height (Light, Day 16 (3-Oct)) was 28.3, the “Rate of Growth Between Measurements” value (Light, Day 16 (3-Oct)) was 0.57 and the “Rate of Growth Overall Thru Date” value (Light, Day 16 (3-Oct)) was 1.77. For the same compound, the “Amount of Growth Between Measurements” value (Light, Day 19 (6-Oct)) was −0.7, the Plant growth-height (Light, Day 19 (6-Oct)) was 27.6 and the “Rate of Growth Between Measurements” value (Light, Day 19 (6-Oct)) was −0.23. For the same compound, the “Rate of Growth Overall Thru Date” value (Light, Day 19 (6-Oct)) was 1.45.
